Laboratory results published in the supplement of paper PMC4858399.
Where a name gives a salt, the structure may show the parent alone.

Key:
Conditions in all cases: exposure time 48 h
[1] = test system: Caenorhabditis elegans N2; experiment: lowest effective concentration for larval growth inhibition (size below effect threshold); higher = less potent
In short: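 Worm size was taken as per-worm extinction on the Biosort, log-transformed and turned into well means. The larvae (C. elegans N2, L1 stage, 50 per 96-well) had spent 48 h at 20°C in K-medium with killed bacteria, 1% DMSO and 0.5, 1, 5, 10, 50, 100 or 200 µM chemical. The lowest effective concentration marks the first dose where the plate-adjusted mean size drops under a cutoff and remains under it at every higher dose; the cutoff is 5.665.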

[2] = test system: Caenorhabditis elegans N2; experiment: mean nematode size ln(EXT) after 48 h, plate-adjusted (DMSO control set to 6) (ln(EXT), control-adjusted); higher = larger nematodes / less growth inhibition
In short: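 Each treatment used 4–6 wells of 50 synchronised C. elegans N2 L1 larvae, kept for 48 h at 20°C in K-medium with killed OP50, 1% DMSO and 0.5–200 µM chemical. Debris was excluded by a growth model after the Biosort measured per-worm extinction. Mean size per well came from natural-logged values and was plate-adjusted. That adjustment subtracted the vehicle control mean and then added 6.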

[3] = test system: Caenorhabditis elegans N2; experiment: AC50 for larval growth inhibition (Hill fit); higher = less potent
In short: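 Synchronised C. elegans N2 L1 larvae (50 per well, 96-well plates) were grown for 48 h at 20°C in K-medium with killed OP50, 1% DMSO and 0.5–200 µM chemical. The COPAS Biosort measured each worm's size as extinction, which was log-transformed and averaged per well. AC50 came from a constrained Hill fit by weighted genetic-algorithm regression on wells with at least 10 worms. Out-of-range values are censored.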

Row | Compound | lowest effective concentration [1] [µM] | mean nematode size ln(EXT) (ln) ([2]; 0.5 µM) | mean nematode size ln(EXT) (ln) ([2]; 1 µM) | mean nematode size ln(EXT) (ln) ([2]; 5 µM) | mean nematode size ln(EXT) (ln) ([2]; 10 µM) | mean nematode size ln(EXT) (ln) ([2]; 50 µM) | mean nematode size ln(EXT) (ln) ([2]; 100 µM) | mean nematode size ln(EXT) (ln) ([2]; 200 µM) | AC50 for larval growth inhibition [3] [µM]
1 | COc1ccc(C(=CC(=O)N2CCOCC2)c2ccc(Cl)cc2)cc1OC [Dimethomorph] | 100 | 6 | 5.98 | 6.05 | 6.03 | 5.92 | 5.54 | 4.95 | 117
2 | CCOP(=O)(OCC)Oc1nc(Cl)c(Cl)cc1Cl [Chlorpyrifos oxon] | ≤ 0.5 | 4.98 | 4.42 | 4.26 | 4.05 | 3.47 | 3.24 | 3.15 | 1.24
3 | CC(C)(C)c1cccc(C(C)(C)C)c1O [2,6-Di-tert-butylphenol] | 200 | 6.07 | 5.99 | 6.03 | 6.07 | 5.91 | 5.88 | 5.19 | > 200
4 | c1cc2ccc3cccc4ccc(c1)c2c34 [Pyrene] | 1 | 5.71 | 5.58 | 4.64 | 4.52 | 4.28 | 4.05 | 3.59 | 4.29
5 | CCC(C)N(C)C(=O)c1cc2ccccc2c(-c2ccccc2Cl)n1 (stereo unspecified) | 100 | 5.92 | 5.93 | 5.99 | 5.97 | 6.11 | 5.55 | 5.43 | 95.2
6 | COP(=S)(OC)SCn1nnc2ccccc2c1=O [Azinphos-methyl] | 50 | 6.09 | 6.12 | 6.04 | 5.95 | 5.61 | 5.49 | 3.9 | 170
7 | CN(C)[C@@H]1C(=O)C(C(N)=O)=C(O)[C@@]2(O)C(=O)C3=C(O)c4c(O)cccc4[C@@](C)(O)[C@H]3[C@H](O)[C@@H]12 [Oxytetracycline dihydrate] | 200 | 5.86 | 6.02 | 6.01 | 5.95 | 5.87 | 5.83 | 5.46 | > 200
8 | CCc1c(C(=O)NN2CCCCC2)nn(-c2ccc(Cl)cc2Cl)c1-c1ccc(Br)cc1 [Surinabant] | 5 | 5.77 | 5.74 | 5.6 | 5.44 | 5.2 | 5.06 | 4.77 | > 200
9 | CCN(CC)c1nc(C)cc(OP(=S)(OC)OC)n1 [Pirimiphos-methyl] | 200 | 5.93 | 5.93 | 5.83 | 5.92 | 6.01 | 6.01 | 4.12 | 124
10 | CN(C)[C@@H]1C(=O)C(C(N)=O)=C(O)[C@@]2(O)C(=O)C3=C(O)c4c(O)cccc4[C@@](C)(O)[C@H]3C[C@@H]12 [Tetracycline] | 100 | 6.03 | 6.08 | 6.03 | 6.05 | 6.06 | 5.64 | 4.89 | 103
11 | CC(C)(C)C(=O)C(Oc1ccc(Cl)cc1)n1cncn1 (stereo unspecified) [Triadimefon] | 200 | 5.76 | 5.75 | 5.57 | 5.71 | 5.98 | 5.91 | 5.36 | > 200
12 | C=CCC1=C(C)C(OC(=O)C2C(C=C(C)C)C2(C)C)CC1=O (stereo unspecified) [Allethrin] | 50 | 5.9 | 5.91 | 5.87 | 5.86 | 5.64 | 5.59 | 5.23 | > 200
13 | Cc1ccc(-c2cc(C(F)(F)F)nn2-c2ccc(S(N)(=O)=O)cc2)cc1 [Celecoxib] | 50 | 5.9 | 5.92 | 5.8 | 5.81 | 4.7 | 4.53 | 4.22 | 30.3
14 | O=C(O)c1ccccc1-n1cc(C(=O)O)c(=O)c2cc(Nc3c(F)cc(F)cc3Cl)c(Cl)cc21 | 200 | 5.87 | 5.89 | 5.95 | 5.9 | 5.94 | 5.85 | 5.63 | > 200
15 | CC1(C(=O)Nc2ccc(O)c(Cl)c2Cl)CCCCC1 [Fenhexamid] | 200 | 5.86 | 5.87 | 5.88 | 5.96 | 6 | 5.86 | 4.71 | 112
16 | c1ccc(NNc2ccccc2)cc1 [1,2-Diphenylhydrazine] | 50 | 5.81 | 5.72 | 5.71 | 5.69 | 5.22 | 4.11 | 3.42 | 78.8
17 | CCOP(=S)(OCC)SCSCC [Phorate] | 100 | 5.9 | 5.87 | 5.8 | 5.76 | 5.68 | 5.55 | 5.21 | > 200
18 | N#CSCSC#N [Methylene bis(thiocyanate)] | ≤ 0.5 | 5.41 | 5.47 | 5.22 | 5.16 | 3.74 | 3.85 | 3.4 | 17.5
19 | O=C(O)[C@@H]1[C@H](C(=O)O)[C@H]2CC[C@@H]1O2 [Endothal] | 200 | 5.86 | 5.85 | 5.91 | 5.82 | 5.56 | 5.71 | 5.15 | > 200
20 | CCOc1cccc(-n2cc(C(=O)N3CCN(c4cc(C(=O)O)c5ccccc5c4)CC3)nc2-c2ccc(C)cc2)c1 | 50 | 5.89 | 5.86 | 5.82 | 5.84 | 4.84 | 4.42 | 3.94 | 57.9
21 | CCC(C)c1ccc(O)cc1 (stereo unspecified) [4-(Butan-2-yl)phenol] | 200 | 6.03 | 6.09 | 6.07 | 6.08 | 6.05 | 6.02 | 5.52 | 142
22 | CC(C)(O)c1coc(S(=O)(=O)NC(=O)Nc2c3c(cc4c2CCC4)CCC3)c1 | 200 | 5.93 | 6.15 | 6.24 | 6.2 | 6.09 | 5.98 | 5.63 | 111

Row | Compound | lowest effective concentration [1] [µM] | mean nematode size ln(EXT) (ln) ([2]; 0.5 µM) | mean nematode size ln(EXT) (ln) ([2]; 1 µM) | mean nematode size ln(EXT) (ln) ([2]; 5 µM) | mean nematode size ln(EXT) (ln) ([2]; 10 µM) | mean nematode size ln(EXT) (ln) ([2]; 50 µM) | mean nematode size ln(EXT) (ln) ([2]; 100 µM) | mean nematode size ln(EXT) (ln) ([2]; 200 µM) | AC50 for larval growth inhibition [3] [µM]
23 | CCCCCCCCOC(=O)c1cc(O)c(O)c(O)c1 [Octyl gallate] | 50 | 5.79 | 5.87 | 5.84 | 5.88 | 4.63 | 4.47 | 3.77 | 55.1
24 | CC[C@@H]1C[C@H](N(Cc2cc(C(F)(F)F)cc(C(F)(F)F)c2)C(C)=O)c2cc(C(F)(F)F)ccc2N1C(=O)OC(C)C | 200 | 5.74 | 6.01 | 5.87 | 5.9 | 5.83 | 5.79 | 5.52 | > 200
25 | Cc1ncc(CO)c(CO)c1O [Pyridoxine] | 200 | 5.84 | 5.88 | 5.86 | 5.83 | 5.87 | 5.92 | 5.63 | > 200
26 | Cc1oc(-c2ccccc2)nc1CCOc1cccc2c1ccn2CCC(=O)O | 200 | 5.73 | 5.92 | 5.85 | 5.73 | 5.67 | 5.81 | 5.52 | > 200
27 | CCCCCCCCCCCC[N+](C)(C)C [Dodecyl trimethyl ammonium chloride] | 100 | 5.76 | 6.02 | 5.88 | 5.9 | 5.76 | 5.65 | 4.53 | 199
28 | COC(=O)c1ccccc1O [Methyl salicylate] | 200 | 5.89 | 5.86 | 5.82 | 5.75 | 5.81 | 5.78 | 5.26 | > 200
29 | CCCCC(CC)COC(=O)c1ccc(C(=O)OCC(CC)CCCC)c(C(=O)OCC(CC)CCCC)c1 (stereo unspecified) [Tris(2-ethylhexyl)trimellitate] | 200 | 5.91 | 5.93 | 5.94 | 5.81 | 5.93 | 5.87 | 5.53 | > 200
30 | CN1CCC[C@H]1c1cccnc1 [Nicotine] | 100 | 5.88 | 5.83 | 5.83 | 5.87 | 5.87 | 5.38 | 5.56 | > 200
31 | CN=C=S [Methyl isothiocyanate] | 200 | 6.14 | 6.37 | 6.06 | 6.02 | 5.96 | 6.02 | 5.06 | > 200
32 | O=C1OC(c2ccc(O)cc2)(c2ccc(O)cc2)c2ccccc21 [Phenolphthalein] | 200 | 5.87 | 5.86 | 5.87 | 5.87 | 5.78 | 5.84 | 5.55 | > 200
33 | c1ccc2cc3c(ccc4ccccc43)cc2c1 [Benz[a]anthracene] | 1 | 5.89 | 4.38 | 5.22 | 5.01 | 4.59 | 4.58 | 3.32 | 24.9
34 | CCOC(=O)C(O)(c1ccc(Cl)cc1)c1ccc(Cl)cc1 [Chlorobenzilate] | 10 | 6.05 | 5.97 | 5.87 | 5.64 | 4.21 | 4.08 | 3.11 | 39.4
35 | O=C(NC(=O)c1c(F)cccc1F)Nc1cc(Cl)c(OC(F)(F)C(F)F)c(Cl)c1 [Hexaflumuron] | 10 | 5.94 | 5.96 | 5.8 | 5.64 | 5.5 | 5.44 | 4.83 | > 200
36 | NC(=Nc1ccccc1)Nc1ccccc1 [1,3-Diphenylguanidine] | 5 | 5.67 | 5.74 | 5.62 | 5.6 | 5.63 | 5.64 | 5.55 | 16.6
37 | O=C1O[C@H]([C@@H](O)CO)C([O-])=C1O.[Na+] [(+)-Sodium L-ascorbate] | 50 | 5.84 | 5.88 | 5.78 | 5.85 | 5.29 | 5.05 | 3.96 | 132
38 | CNCc1ccc(NC(=O)c2c[nH]c3c2C(=O)CCC3)cc1 | 200 | 5.9 | 6.14 | 6.21 | 6.19 | 6.15 | 6.09 | 5.65 | > 200
39 | CC(C)(C)CC(C)(C)c1ccc(O)cc1 [4-(1,1,3,3-Tetramethylbutyl)phenol] | 50 | 6.09 | 6.01 | 6.04 | 5.97 | 5.53 | 4.62 | 3.54 | 101
40 | COc1ccc(S(=O)(=O)N2C(=O)[C@@](c3ccccc3OC)(N3C[C@H](O)C[C@H]3C(=O)N(C)C)c3cc(Cl)ccc32)c(OC)c1 [Nelivaptan] | 100 | 5.95 | 5.76 | 5.72 | 5.83 | 5.7 | 5.48 | 5.44 | > 200
41 | CSC(=O)c1c(C(F)F)nc(C(F)(F)F)c(C(=O)SC)c1CC(C)C [Dithiopyr] | 10 | 6.12 | 6.03 | 6.04 | 5.65 | 4.72 | 4.61 | 3.44 | 66.4
42 | CC(C)(C)c1cc(O)c(C(C)(C)C)cc1O [1,4-Benzenediol, 2,5-bis(1,1-dimethylethyl)-] | 100 | 5.85 | 5.93 | 5.73 | 5.79 | 5.7 | 4.85 | 3.48 | 113
43 | CN(C)CCOC(c1ccccc1)c1ccccc1 [Diphenhydramine hydrochloride] | 200 | 5.87 | 5.9 | 5.91 | 5.91 | 5.78 | 5.78 | 5.39 | > 200
44 | CCCN(CCC)c1c([N+](=O)[O-])cc(C(F)(F)F)cc1[N+](=O)[O-] [Trifluralin] | 200 | 5.85 | 6.06 | 6.05 | 6 | 5.03 | 6.06 | 3.63 | 53
